Test results as given in patent US20260210948A1, “FLUORESCENCE-BASED ASSAY FOR IDENTIFICATION OF PROTAC LIGANDS FOR HECT-TYPE E3 LIGASES” (Purdue Research Foundation, priority 2022, published 2026).

Columns and labels:
Rsp5 [1] = assay: Iodoacetamide inhibition assay, fluorescence polarization; type: biochemical, yeast (S. cerevisiae); details: Rsp5 incubated with iodoacetamide 12.5-500 μM for 1 hour
Description: Inhibition assays were conducted by first incubating 0.5 μm Rsp5/NEDD4L-Rsp5HYBRID with varying concentration of iodoacetamide (12.5-500 μM) for 1 hour in the reaction buffer (50 mM Tris pH 7.4, 100 mM NaCl, 1 mg/ml BSA). Fluorescence polarization was then measured after adding 0.25 μm E1 enzyme, 0.5 μm UbcH7, 100 μm Ub and 10 μm fluorescein-labeled peptide to the reaction well. The Z-factor (Z′) for the assay was calculated using eight replicates of the positive control (no iodoacetamide addition) and negative control (500 μM iodoacetamide addition). The initial slopes of each of the 16 reactions were calculated, followed by calculation of the positive control and negative control means (μ_+ and μ_−) and standard deviations (σ_+ and σ_−). The mean and standard deviation values were then used to calculate the Z-factor using the following formula (II):
(§1) All assays were carried out at least in triplicate, at a final reaction volume of 100 μL, and utilizing Grenier 96 well plates (Product no. 655097). Fluorescence polarization was measured using a Synergy H4 Plate Reader (BioTek) using 485 nm excitation and 528 nm emission filters.
An iodoacetamide inhibition assay to mimic peptide displacement conditions was performed to test robustness and reproducibility. […]

Rsp5 [2] = assay: Peptide-ubiquitination fluorescence polarization assay with Rsp5; type: biochemical, yeast (S. cerevisiae); details: Uba1, UbcH7, Rsp5 lacking the C2 domain, ATP and Ub; λex=485 nm; λem=528 nm
Description: Assays were performed by mixing […] enzyme, 0.5 μm UbcH7, 0.5 μm Rsp5/NEDD4L-Rsp5HYBRID, 100 μM Ub and 10 μM fluorescein-labeled peptide in (50 mM Tris pH 7.4, 100 mM NaCl, 1 mg/ml BSA) buffer. Reaction mixtures were left to equilibrate at room temperature for 10 minutes before taking measurements. Reactions were then started by adding 100 mM ATP. A sample of this reaction was also utilized for SDS-PAGE gel electrophoresis.
as §1
Target sequence in this assay (P39940 229-809 limits assumed): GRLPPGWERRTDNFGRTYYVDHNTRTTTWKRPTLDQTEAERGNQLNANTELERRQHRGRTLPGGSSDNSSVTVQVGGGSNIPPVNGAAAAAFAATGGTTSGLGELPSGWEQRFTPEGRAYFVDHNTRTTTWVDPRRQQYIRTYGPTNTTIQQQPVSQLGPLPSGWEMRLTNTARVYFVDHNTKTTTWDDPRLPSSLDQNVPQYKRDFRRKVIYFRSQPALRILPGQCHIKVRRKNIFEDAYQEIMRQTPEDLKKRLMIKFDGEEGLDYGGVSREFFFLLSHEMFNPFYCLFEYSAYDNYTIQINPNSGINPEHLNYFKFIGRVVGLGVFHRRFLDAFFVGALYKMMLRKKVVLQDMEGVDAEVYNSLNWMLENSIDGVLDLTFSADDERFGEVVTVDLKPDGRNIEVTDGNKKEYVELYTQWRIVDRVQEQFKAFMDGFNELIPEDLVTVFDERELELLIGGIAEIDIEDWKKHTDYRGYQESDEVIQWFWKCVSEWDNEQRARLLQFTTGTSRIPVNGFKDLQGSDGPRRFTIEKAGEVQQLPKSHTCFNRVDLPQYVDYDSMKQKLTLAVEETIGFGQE
A PPxY peptide based on a yeast vesicular snare protein (Sna4) containing the PPxY motif was designed, synthesized, and labeled with fluorescein at the N-terminus. An assay utilizing Uba1 (E1 ubiquitin (Ub)-activating enzyme), UbcH7 (E2 Ub-conjugating enzyme) and Rsp5 ([…] E3 Ub-ligase), which lacked the C2 domain to simplify in vitro screening, in the presence of adenosine triphosphate (ATP) and Ub was performed. Fluorescence polarization (FP) was recorded to monitor ubiquitination of the peptide. […] Ubiquitination of the PPxY peptide was confirmed by SDS-PAGE. […] No fluorescence polarization occurred in the absence of UbcH7, Rsp5, Ub, or ATP.

Compound	rate of peptide ubiquitination (initial slope) (Rsp5 [1])	fluorescence polarization (ubiquitination of the peptide) (Rsp5 [2])
NC(=O)CI [Iodoacetamide, iodoacetamide]	decreasing the rate of peptide ubiquitination	
NKQSLVESPPPY [PPxY peptide, peptide mimicking residues 128-138 of yeast Sna4 with PPPY motif, fluorescein labeled on the N-terminus]		increase in fluorescence polarization
